Patent US20110093959A1, “CRYPTOTIS PARVA SCREENING MODEL FOR ANTIEMETIC POTENTIAL” (priority 2008, published 2011)
Entries after “also recorded” stand apart in the source; their conditions may differ.

Key:
Assay type in all cases: in vivo, Cryptotis parva
Least Shrew [1] = experiment: Emetic effect of arachidonic acid metabolites and leukotrienes in the Least Shrew; conditions: found experimentally
Experimental: Varying doses of leukotriene LTC4 were administered by intraperitoneal injection, and dose-response emetic effects recorded for 30 min post-injection observation period. The graph in FIG. 20 depicts enhancements in the frequency (mean±S.E.M.) of emesis.

[2] = test system: GR73632-induced emesis and scratching in the Least Shrew; experiment: Antagonist interaction study against GR73632 (5 mg/kg, i.p.)-induced emesis and scratching; conditions: for behavioral effect of antagonist by itself: 20 mg/kg dose, without GR73632
From the text: The present protocols were based upon preliminary studies as well as published findings in the Least Shrew. Darmani, 2001a; Darmani et al., 69 Pharmacol. Biochem. Behay. 239-49 (2001b). On the test day, the shrews were allowed to acclimate to the test laboratory for at least one hour prior to experimentation. To habituate the animals to the test environment, each shrew was randomly selected and transferred to a 20 cm×18 cm×21 cm clean clear plastic cage and offered four mealworms (Tenebrio sp.) 30 min prior to experimentation.
The latter doses of SP and GR73632 were chosen for subsequent antagonist interaction studies to pharmacologically characterize the role of NK1 receptors in the mediation of induced emesis by the use of: (1) two selective neurokinin NK1 receptor antagonists (CP99,994 and L733060) (Watson et al., 115 Br. J. Phramacol. 84-94 (1995); Guiard et al., 89 J. Neurochem. 54-63 (2004)); (2) an NK2 receptor antagonist (GR159897) (Beresford et al., 272 Eur. J. Pharmacol. 241-48 (1995)); and (3) an NK3 receptor antagonist (SB218795) (Salthun-Lassalle et al., 1995).
For the above drug interaction studies, different doses (i.p.) of either CP99,994 (0, 5, 10, and 20 mg/kg, n=10-14 shrews per group); L733060 (0, 5, 10, and 20 mg/kg, n=10-14 shrews per group), GR159897 (0 mg/kg and 20 mg/kg, n=8 per group) or SB218795 (0 or 20 mg/kg, n=7-8 per group) were administered to different groups of shrews 30 min prior to injection of an emetic dose (5 mg/kg, i.p.) of the NK1-receptor agonist GR73632. Emesis and scratchings were recorded for 30 min immediately following GR73632 administration as described above. The antiemetic effect of CP99,994 (0, 5, and 10 mg/kg, n=9-10 animals per group) was also investigated in a similar manner against SP (50 mg/kg, i.p.)-induced emesis.
(§1) The data on the frequency of emesis and scratchings were analyzed by the Kruskal-Wallis (KW) nonparametric one-way analysis of variance (ANOVA) and post hoc analysis by Dunn's multiple comparisons test or Mann-Whitney test. A P value of <0.05 was necessary to attain statistical significance. The incidence of emesis (number of shrews vomiting) was analyzed by the Fisher's exact test to determine whether there were differences between groups. When appropriate, pairwise comparisons were also made by this method. Two-way analysis of variance using the Kruskal-Wallis or Fisher's exact tests were initially utilized to respectively analyze the dose-response results of GR73632 on emesis and scratching behaviors, and percentage of shrews vomiting in saporin- and corresponding saline-pretreated control shrews. […] For some emesis data, the two-tailed Mann-Whitney test was used. The SP tissue concentration data were analyzed by a one-way ANOVA followed by Dunnett's t test as post hoc analysis. Fos-IR was quantified by counting immunopositive nuclei within each hemisection containing the region of interest (ROI). The number of nuclei was averaged across sections with the ROI for each animal, and the group mean and standard error obtained.

[3] = test system: CIS-induced emesis in the Least Shrew; experiment: Tropisetron, Δ^9-THC and dexamethasone alone or in combination against CIS (20 mg/kg)-induced emesis, 60 min
Experimental: Briefly, all animals were randomly divided into two groups. On the test day, shrews were habituated to the laboratory environment for at least 1 hr prior to experimentation. […] All drugs were administered at a volume of 0.1 ml/10 g body weight. Immediately following the second injection, each shrew was placed in the observation cage, and both the number of animals vomiting per group and the frequency of vomiting (oral ejections of food or liquid) were recorded for the next 60 min
Poisson regression and logistic regression analyses were employed for two-way analysis of vomiting frequency and protection from emesis, respectively. […] Data regarding the frequency of emesis were analyzed by the Kruskal-Wallis nonparametric one-way analysis of variance (ANOVA), and post hoc analysis by Dunn's multiple comparisons test. The incidence of emesis (number of animals vomiting) was analyzed by Fisher's exact test to determine whether there were differences between groups, and when appropriate, pairwise comparisons were also made. A p value of<0.05 was necessary to achieve statistical significance.

Least Shrew [4] = experiment: Dose response emesis and scratching studies with tachykinin receptor agonists
From the text: The present protocols were based upon preliminary studies as well as published findings in the Least Shrew. Darmani, 2001a; Darmani et al., 69 Pharmacol. Biochem. Behay. 239-49 (2001b). On the test day, the shrews were allowed to acclimate to the test laboratory for at least one hour prior to experimentation. To habituate the animals to the test environment, each shrew was randomly selected and transferred to a 20 cm×18 cm×21 cm clean clear plastic cage and offered four mealworms (Tenebrio sp.) 30 min prior to experimentation. […]
as §1

[5] = 1 mg/kg i.p., administered alone
[6] = 5 mg/kg i.p., administered alone
[7] = tropisetron 0.1 mg/kg with 0.5 mg/kg Δ^9-THC
[8] = tropisetron 0.25 mg/kg with 0.25 mg/kg Δ^9-THC
[9] = tropisetron 0.25 mg/kg with 0.5 mg/kg Δ^9-THC
[10] = tropisetron 1 mg/kg with 0.1 mg/kg Δ^9-THC
[11] = tropisetron 1 mg/kg with 0.25 mg/kg Δ^9-THC
[12] = tropisetron 1 mg/kg with 0.5 mg/kg Δ^9-THC
[13] = tropisetron 5 mg/kg with 0.1 mg/kg Δ^9-THC
[14] = tropisetron 5 mg/kg with 0.25 mg/kg Δ^9-THC
[15] = tropisetron 5 mg/kg with 0.5 mg/kg Δ^9-THC

## O=C(O)CCC/C=C\C[C@H]1C(=O)C[C@@H](O)[C@@H]1/C=C/[C@@H](O)CCCCCO [20 Hydroxy PGE2]
Least Shrew [1]
  emesis in the Least Shrew: produce emesis

## O=C(O)CCC/C=C\C[C@@H]1[C@@H](/C=C/[C@@H](O)CCCCCO)[C@H](O)C[C@@H]1O [20 Hydroxy PGE2α]
Least Shrew [1]
  emesis in the Least Shrew: produce emesis

## COC1(C[S@@+]([O-])c2ccccc2)CCN(CCc2c[nH]c3ccc(F)cc23)CC1 [GR159897, 5-Flouro-3-[2-[4-methoxy-4-[[(R)-phenylsulphinyl]methyl]-1-piperidinyl]ethyl]-1H-indole]
[2]
  behavioral effect of antagonist by itself: did not produce any behavioral effect
[2]; antagonist 20 mg/kg i.p.
  enhancement of frequency of GR73632-induced emesis: did not attain significance
  enhancement of frequency of GR73632-induced scratching: did not attain significance
  percentage of shrews vomiting in response to GR73632: failed to affect

## Cl.FC(F)(F)c1cc(CO[C@H]2CCCN[C@H]2c2ccccc2)cc(C(F)(F)F)c1 [L733060]
[2]; antagonist 5 mg/kg i.p.
  reduction in frequency of GR73632-induced emesis: 62%
  reduction in percentage of shrews vomiting in response to GR73632: 33%
  reduction of GR73632-induced scratchings: 63%
[2]; antagonist 10 mg/kg i.p.
  reduction in frequency of GR73632-induced emesis: 74%
  reduction in percentage of shrews vomiting in response to GR73632: 53%
  reduction of GR73632-induced scratchings: 69%
[2]; antagonist 20 mg/kg i.p.
  reduction in frequency of GR73632-induced emesis: 95%
  reduction in percentage of shrews vomiting in response to GR73632: 73%
  reduction of GR73632-induced scratchings: 54%
[2]; at highest tested effective antiemetic doses
  onset of first emesis induced by GR73632: only delayed the onset of first emesis

## CCCCC/C=C\C\C=C/C=C/C=C/[C@@H]1O[C@H]1CCCC(=O)O [LTA4]
Least Shrew [1]
  emesis in the Least Shrew: non-emetic

## CCCCC/C=C\C[C@@H](O)/C=C/C=C/C=C\[C@@H](O)CCCC(=O)O [LTB4]
Least Shrew [1]
  emesis in the Least Shrew: non-emetic

## CCCCC/C=C\C\C=C/C=C/C=C/[C@@H](SC[C@H](NC(=O)CC[C@H](N)C(=O)O)C(=O)NCC(=O)O)[C@@H](O)CCCC(=O)O [LTC4]
Least Shrew [1]
  emesis in the Least Shrew: potent emetogens; also recorded: produce emesis

## CCCCC/C=C\C\C=C/C=C/C=C/[C@@H](SC[C@H](N)C(=O)NCC(=O)O)[C@@H](O)CCCC(=O)O [LTD4]
Least Shrew [1]
  emesis in the Least Shrew: potent emetogens; also recorded: produce emesis

## CCCCC/C=C\C\C=C/C=C/C=C/[C@@H](SC[C@H](N)C(=O)O)[C@@H](O)CCCC(=O)O [LTE4]
Least Shrew [1]
  emesis in the Least Shrew: non-emetic

## CCCCC/C=C\C\C=C/C=C/C=C/[C@@H](SC[C@H](NC(=O)CC[C@@H](N)C(=O)O)C(=O)O)[C@@H](O)CCCC(=O)O [LTF4]
Least Shrew [1]
  emesis in the Least Shrew: non-emetic

## CCCCC[C@H](O)/C=C/[C@H]1C(=O)C[C@H](O)[C@@H]1C/C=C\CCCC(=O)O [PGD2]
Least Shrew [1]
  emesis in the Least Shrew: non-emetic

## CCCCC[C@H](O)/C=C/[C@H]1[C@H](O)CC(=O)[C@@H]1C/C=C\CCCC(=O)O [PGE2]
Least Shrew [1]
  emesis in the Least Shrew: non-emetic

## CCCCC[C@H](O)/C=C/[C@@H]1[C@@H](C/C=C\CCCC(=O)O)[C@@H](O)C[C@H]1O [PGF2α]
Least Shrew [1]
  emesis in the Least Shrew: produce emesis

## CCCCC[C@@H](/C=C/[C@@H]1[C@@H](C/C=C\CCCC(=O)O)[C@@H]2C[C@H]1OO2)OO [PGG2]
Least Shrew [1]
  emesis in the Least Shrew: produce emesis

## CCCCC[C@H](O)/C=C/[C@@H]1[C@H]2C/C(=C/CCCC(=O)O)O[C@H]2C[C@H]1O [PGI2]
Least Shrew [1]
  emesis in the Least Shrew: non-emetic

## COC(=O)C(NC(=O)c1cc(-c2ccccc2)nc2ccccc12)c1ccccc1 (centres unmarked) [SB218795]
[2]
  behavioral effect of antagonist by itself: did not produce any behavioral effect
[2]; antagonist 20 mg/kg i.p.
  enhancement of frequency of GR73632-induced emesis: did not attain significance
  enhancement of frequency of GR73632-induced scratching: did not attain significance
  percentage of shrews vomiting in response to GR73632: failed to affect

## CCCCC/C=C\C/C=C\C/C=C\C/C=C\CCCC(=O)O [arachidonic acid]
Least Shrew [1]
  emesis in the Least Shrew: produce emesis

## CN1[C@@H]2CC[C@H]1C[C@@H](OC(=O)c1c[nH]c3ccccc13)C2 [tropisetron]
[3]; 0.25 mg/kg i.p., administered alone
  reduction in frequency of CIS-induced emesis: 79%
[3]; [5]
  reduction in frequency of CIS-induced emesis: 94%
  reduction in percentage of shrews vomiting in response to CIS: 75%
[3]; [6]
  reduction in frequency of CIS-induced emesis: 99.8%
  reduction in percentage of shrews vomiting in response to CIS: 92%
[3]; drug by itself, dose-dependent
  reduction in number of shrews vomiting, over tested doses: completely protected
[3]; tropisetron 0.025 mg/kg with 0.25 mg/kg Δ^9-THC
  reduction in frequency of CIS-induced emesis: 60%
[3]; tropisetron 0.1 mg/kg with 0.25 mg/kg Δ^9-THC
  reduction in frequency of CIS-induced emesis: 59.8%
[3]; [7]
  reduction in frequency of CIS-induced emesis: 57.5%
  reduction in percentage of shrews vomiting in response to CIS: 58%
[3]; tropisetron 0.25 mg/kg with 0.1 mg/kg Δ^9-THC, vs 0 mg/kg tropisetron
  reduction in frequency of CIS-induced emesis: 88%
[3]; [8]
  reduction in frequency of CIS-induced emesis: 84%
  reduction in percentage of shrews vomiting in response to CIS: 50%
[3]; [9]
  reduction in frequency of CIS-induced emesis: 70%
  reduction in percentage of shrews vomiting in response to CIS: 50%
[3]; [10]
  reduction in frequency of CIS-induced emesis: 90.6%
  reduction in percentage of shrews vomiting in response to CIS: 78%
[3]; [11]
  reduction in frequency of CIS-induced emesis: 100%
  reduction in percentage of shrews vomiting in response to CIS: 100%
[3]; [12]
  reduction in frequency of CIS-induced emesis: 70.1%
  reduction in percentage of shrews vomiting in response to CIS: 83%
[3]; [13]
  reduction in frequency of CIS-induced emesis: 89.4%
  reduction in percentage of shrews vomiting in response to CIS: 71%
[3]; [14]
  reduction in frequency of CIS-induced emesis: 93%
  reduction in percentage of shrews vomiting in response to CIS: 70%
[3]; [15]
  reduction in frequency of CIS-induced emesis: 69.8%
  reduction in percentage of shrews vomiting in response to CIS: 58%
[3]; tropisetron, all doses, combined with 1 mg/kg or 5 mg/kg Δ^9-THC
  effect on frequency of CIS-induced vomiting: None of the cited doses of tropisetron had a significant effect
[3]; tropisetron, any dose, with 1 mg/kg and 5 mg/kg Δ^9-THC
  effect on percentage of shrews vomiting: no dose of tropisetron significantly altered

## [Lys^3, Gly^8-R-gamma-lactam-leu^9]Neurokinin-A (3-10) [GR64349]
Least Shrew [4]; doses up to 10 mg/kg i.p.
  produced emesis or significant scratchings: neither

## [Sar^9, Met (O2)”]-Substance P [Sar Met-SP]
Least Shrew [4]; 1 mg/kg i.p.
  percentage of shrews vomiting: 20%
Least Shrew [4]; 5 mg/kg i.p.
  percentage of shrews vomiting: 33%
Least Shrew [4]; 10 mg/kg i.p.
  percentage of shrews vomiting: 0%

## acetyl-[Arg, Sar^9, Met (O2)^11]-SP (6-11) [ASMSP]
Least Shrew [4]; 5 mg/kg i.p.
  percentage of shrews vomiting: 37%
Least Shrew [4]; 10 mg/kg i.p.
  percentage of shrews vomiting: 50%
Least Shrew [4]; 20 mg/kg i.p.
  percentage of shrews vomiting: 50%
